# Experimental data from ChEMBL document CHEMBL5303573, “Mapping human microbiome drug metabolism by gut bacteria and their genes” (Nature, 2019).
# Assays:
# [1] = segatella copri, 12 h, 2 µM
# Description: The drug is tested on Prevotella copri strain: DSM18205 for biotransformation. The drug concentrations were measured before and after a 12-h incubation by liquid-chromatography-coupled mass spectrometry (LC–MS)
# [2] = bacteroides eggerthii, 12 h, 2 µM
# Description: The drug is tested on Bacteroides eggerthii strain: DSM20697 for biotransformation. The drug concentrations were measured before and after a 12-h incubation by liquid-chromatography-coupled mass spectrometry (LC–MS)
# [3] = bacteroides fragilis, 12 h, 2 µM
# Description: The drug is tested on Bacteroides fragilis strain: DS-208 for biotransformation. The drug concentrations were measured before and after a 12-h incubation by liquid-chromatography-coupled mass spectrometry (LC–MS)
# [4] = bifidobacterium adolescentis, 12 h, 2 µM
# Description: The drug is tested on Bifidobacterium adolescentis strain: ATCC 15703 for biotransformation. The drug concentrations were measured before and after a 12-h incubation by liquid-chromatography-coupled mass spectrometry (LC–MS)
# [5] = The drug is tested on Bacteroides fragilis strain: HMW610 for biotransformation. The drug concentrations were measured before and after a 12-h incubation by liquid-chromatography-coupled mass spectrometry (LC–MS); conditions: 2 µM
# [6] = The drug is tested on Clostridium asparagiforme strain: DSM15981 for biotransformation. The drug concentrations were measured before and after a 12-h incubation by liquid-chromatography-coupled mass spectrometry (LC–MS); type: ADME; parameters: dose 2 uM, timepoint 0 vs 12 hours; conditions: enterocloster asparagiformis, 2 µM
# [7] = bacteroides thetaiotaomicron, 12 h, 2 µM
# Description: The drug is tested on Bacteroides thetaiotaomicron strain: 3731 for biotransformation. The drug concentrations were measured before and after a 12-h incubation by liquid-chromatography-coupled mass spectrometry (LC–MS)
# [8] = bacteroides fragilis, 12 h, 2 µM; remark: listed apart in the source
# Description: The drug is tested on Bacteroides fragilis strain: NCTC 9343 for biotransformation. The drug concentrations were measured before and after a 12-h incubation by liquid-chromatography-coupled mass spectrometry (LC–MS)
# [9] = The drug is tested on Bacteroides ovatus strain: ATCC8483 for biotransformation. The drug concentrations were measured before and after a 12-h incubation by liquid-chromatography-coupled mass spectrometry (LC–MS); conditions: 2 µM
# [10] = akkermansia muciniphila, 12 h, 2 µM
# Description: The drug is tested on Akkermansia muciniphila strain: ATCC BAA-835 for biotransformation. The drug concentrations were measured before and after a 12-h incubation by liquid-chromatography-coupled mass spectrometry (LC–MS)
# [11] = The drug is tested on Clostridium sporogenes strain: ATCC15579 for biotransformation. The drug concentrations were measured before and after a 12-h incubation by liquid-chromatography-coupled mass spectrometry (LC–MS); conditions: 2 µM
# [12] = roseburia intestinalis, 12 h, 2 µM
# Description: The drug is tested on Roseburia intestinalis strain: L1-82 for biotransformation. The drug concentrations were measured before and after a 12-h incubation by liquid-chromatography-coupled mass spectrometry (LC–MS)
# [13] = The drug is tested on Clostridium sp. strain: fecal isolate for biotransformation. The drug concentrations were measured before and after a 12-h incubation by liquid-chromatography-coupled mass spectrometry (LC–MS); conditions: 2 µM
# [14] = The drug is tested on Anaerococcus hydrogenalis strain: DSM7454 for biotransformation. The drug concentrations were measured before and after a 12-h incubation by liquid-chromatography-coupled mass spectrometry (LC–MS); conditions: 2 µM
# [15] = The drug is tested on Bacteroides coprophilus strain: DSM18228 for biotransformation. The drug concentrations were measured before and after a 12-h incubation by liquid-chromatography-coupled mass spectrometry (LC–MS); conditions: 2 µM
# [16] = The drug is tested on Odoribacter splanchnicus strain: fecal isolate for biotransformation. The drug concentrations were measured before and after a 12-h incubation by liquid-chromatography-coupled mass spectrometry (LC–MS); conditions: 2 µM
# [17] = The drug is tested on Eubacterium hallii strain: DSM3353 for biotransformation. The drug concentrations were measured before and after a 12-h incubation by liquid-chromatography-coupled mass spectrometry (LC–MS); conditions: anaerobutyricum hallii, 2 µM
# [18] = The drug is tested on Bacteroides sp. WH2 strain: WH2 for biotransformation. The drug concentrations were measured before and after a 12-h incubation by liquid-chromatography-coupled mass spectrometry (LC–MS); conditions: bacteroides sp. wh2, 12 h, 2 µM
# [19] = The drug is tested on Dorea formicigenerans strain: ATCC27755 for biotransformation. The drug concentrations were measured before and after a 12-h incubation by liquid-chromatography-coupled mass spectrometry (LC–MS); conditions: 2 µM
# [20] = The drug is tested on Bacteroides finegoldii strain: DSM17565 for biotransformation. The drug concentrations were measured before and after a 12-h incubation by liquid-chromatography-coupled mass spectrometry (LC–MS); conditions: 2 µM
Bacterial Biotransformation [1],Bacterial Biotransformation [2],Bacterial Biotransformation [3],Bacterial Biotransformation [4],Bacterial Biotransformation [5],Bacterial Biotransformation [6],Bacterial Biotransformation [7],Bacterial Biotransformation [8],Bacterial Biotransformation [9],Bacterial Biotransformation [10],Bacterial Biotransformation [11],Bacterial Biotransformation [12],Bacterial Biotransformation [13],Bacterial Biotransformation [14],Bacterial Biotransformation [15],Bacterial Biotransformation [16],Bacterial Biotransformation [17],Bacterial Biotransformation [18],Bacterial Biotransformation [19],Bacterial Biotransformation [20],Compound
Compound NOT metabolized,Compound NOT metabolized,Compound NOT metabolized,Compound NOT metabolized,Compound NOT metabolized,Compound NOT metabolized,Compound NOT metabolized,Compound NOT metabolized,Compound NOT metabolized,Compound NOT metabolized,Compound NOT metabolized,Compound NOT metabolized,Compound NOT metabolized,Compound NOT metabolized,Compound NOT metabolized,Compound NOT metabolized,Compound NOT metabolized,Compound NOT metabolized,,,Cc1cc2c(cc1S(N)(=O)=O)S(=O)(=O)CCC2
Compound NOT metabolized,Compound NOT metabolized,Compound NOT metabolized,,Compound NOT metabolized,Compound NOT metabolized,Compound NOT metabolized,Compound NOT metabolized,,Compound NOT metabolized,Compound metabolized,Compound NOT metabolized,Compound NOT metabolized,Compound NOT metabolized,Compound NOT metabolized,Compound NOT metabolized,Compound NOT metabolized,Compound NOT metabolized,Compound NOT metabolized,Compound NOT metabolized,O=C1[C@H](CC[C@H](O)c2ccc(F)cc2)[C@@H](c2ccc(O)cc2)N1c1ccc(F)cc1 [EZETIMIBE]
Compound NOT metabolized,Compound NOT metabolized,Compound metabolized,Compound NOT metabolized,Compound metabolized,Compound NOT metabolized,Compound metabolized,Compound metabolized,Compound NOT metabolized,Compound NOT metabolized,Compound metabolized,,Compound metabolized,Compound NOT metabolized,Compound NOT metabolized,Compound metabolized,Compound NOT metabolized,Compound metabolized,Compound NOT metabolized,Compound NOT metabolized,C#C[C@]1(O)CC[C@H]2[C@@H]3CCC4=CC(=O)CC[C@@H]4[C@H]3CC[C@@]21CC [LEVONORGESTREL]
Compound NOT metabolized,Compound NOT metabolized,Compound NOT metabolized,Compound NOT metabolized,Compound NOT metabolized,Compound NOT metabolized,Compound NOT metabolized,Compound NOT metabolized,Compound NOT metabolized,Compound NOT metabolized,Compound NOT metabolized,Compound NOT metabolized,Compound NOT metabolized,Compound NOT metabolized,Compound NOT metabolized,Compound NOT metabolized,,Compound NOT metabolized,Compound NOT metabolized,,CCc1nn(CCCN2CCN(c3cccc(Cl)c3)CC2)c(=O)n1CCOc1ccccc1 [NEFAZODONE]
Compound metabolized,Compound metabolized,Compound metabolized,Compound NOT metabolized,Compound metabolized,Compound metabolized,Compound metabolized,Compound metabolized,Compound metabolized,Compound metabolized,Compound metabolized,,Compound metabolized,Compound NOT metabolized,Compound metabolized,Compound metabolized,Compound metabolized,Compound metabolized,Compound NOT metabolized,Compound metabolized,C#C[C@]1(OC(C)=O)CC[C@H]2[C@@H]3CCC4=CC(=O)CC[C@@H]4[C@H]3CC[C@@]21C [NORETHINDRONE ACETATE]
Compound NOT metabolized,Compound NOT metabolized,,Compound metabolized,Compound NOT metabolized,Compound NOT metabolized,Compound NOT metabolized,Compound NOT metabolized,Compound NOT metabolized,Compound metabolized,Compound metabolized,Compound metabolized,Compound NOT metabolized,Compound NOT metabolized,Compound metabolized,Compound metabolized,Compound NOT metabolized,Compound NOT metabolized,Compound metabolized,Compound NOT metabolized,NC(=O)N1c2ccccc2CC(=O)c2ccccc21 [OXCARBAZEPINE]

Compound,Bacterial Biotransformation [1],Bacterial Biotransformation [2],Bacterial Biotransformation [3],Bacterial Biotransformation [4],Bacterial Biotransformation [5],Bacterial Biotransformation [6],Bacterial Biotransformation [7],Bacterial Biotransformation [8],Bacterial Biotransformation [9],Bacterial Biotransformation [10],Bacterial Biotransformation [11],Bacterial Biotransformation [12],Bacterial Biotransformation [13],Bacterial Biotransformation [14],Bacterial Biotransformation [15],Bacterial Biotransformation [16],Bacterial Biotransformation [17],Bacterial Biotransformation [18],Bacterial Biotransformation [19],Bacterial Biotransformation [20]
COc1ccc2c3c1O[C@H]1C[C@@H](O)C=C[C@@]31CCN(C)C2 [GALANTAMINE],Compound metabolized,Compound metabolized,Compound metabolized,Compound NOT metabolized,Compound metabolized,Compound NOT metabolized,Compound metabolized,,Compound metabolized,Compound NOT metabolized,Compound NOT metabolized,Compound NOT metabolized,Compound NOT metabolized,Compound NOT metabolized,Compound metabolized,Compound NOT metabolized,Compound NOT metabolized,Compound metabolized,Compound NOT metabolized,
